Data on 27 molecules can be found in patent publication US8071768B2, “Alkylquinoline and alkylquinazoline kinase modulators” (Janssen Pharmaceutica, N.V., priority 2005, dated 2011).

Each structure is given as a SMILES string. Bounds are passed on as bounds.

This assay deals with T1, TrkB (Homo sapiens, UniProt Q16620).
T1 construct: purchased Upstate 14-507M
T1 sequence (Q16620 32-822): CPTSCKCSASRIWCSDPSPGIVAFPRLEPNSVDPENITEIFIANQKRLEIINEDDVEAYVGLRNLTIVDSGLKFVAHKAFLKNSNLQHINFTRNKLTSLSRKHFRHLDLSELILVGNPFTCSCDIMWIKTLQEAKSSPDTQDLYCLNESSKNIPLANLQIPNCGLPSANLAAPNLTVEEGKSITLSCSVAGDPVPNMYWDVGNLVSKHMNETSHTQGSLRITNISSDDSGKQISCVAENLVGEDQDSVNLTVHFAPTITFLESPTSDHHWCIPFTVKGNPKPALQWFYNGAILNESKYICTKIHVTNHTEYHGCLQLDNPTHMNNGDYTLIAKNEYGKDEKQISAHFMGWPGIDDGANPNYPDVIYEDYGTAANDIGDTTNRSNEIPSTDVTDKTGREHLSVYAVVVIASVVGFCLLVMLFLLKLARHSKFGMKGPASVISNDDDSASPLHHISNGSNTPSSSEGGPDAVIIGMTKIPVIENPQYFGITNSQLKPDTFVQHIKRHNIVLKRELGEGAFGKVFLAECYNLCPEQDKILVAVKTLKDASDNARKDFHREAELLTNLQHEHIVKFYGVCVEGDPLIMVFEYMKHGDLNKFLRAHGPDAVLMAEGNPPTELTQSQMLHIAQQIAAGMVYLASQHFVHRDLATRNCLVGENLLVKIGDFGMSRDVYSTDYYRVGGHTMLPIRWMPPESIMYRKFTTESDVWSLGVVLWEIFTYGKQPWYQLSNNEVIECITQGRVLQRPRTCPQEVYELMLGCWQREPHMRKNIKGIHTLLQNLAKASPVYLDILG
In words: Trk B Fluorescence Polarization Kinase Assay. It is filed as biochemical. The following applies: uncertainty ±10%. On the procedure: Trk B Fluorescence Polarization Kinase Assay (TrkB IC50 Data)
The compounds of the present invention are also specific inhibitors of TrkB. Selection of preferred compounds of Formula I for use as TrkB inhibitors was performed in the following manner. The TrkB assay utilized the fluorescein-labeled phosphopeptide and the anti-phosphotyrosine antibody included in the Panvera Phospho-Tyrosine Kinase Kit (Green) supplied by Invitrogen. When TrkB phosphorylated poly Glu4Tyr, the fluorescein-labeled phosphopeptide was displaced from the anti-phosphotyrosine antibody by the phosphorylated poly Glu4Tyr, thus decreasing the FP value. The TrkB kinase reaction was incubated at room temperature for 30 minutes under the following conditions: 50 nM TrkB (Upstate, catalog # 14-507M), 20 ug/mL poly Glu4Tyr, 150 uM ATP, 5 mM MgCl2, 1% compound in DMSO. The kinase reaction was stopped with the addition of EDTA. The fluorescein-labeled phosphopeptide and the anti-phosphotyrosine antibody were added and incubated for 30 minutes at room temperature. Data points were an average of triplicate samples. Inhibition and IC50 data analysis were done with GraphPad Prism using a non-linear regression fit with a multiparamater, sigmoidal dose-response (variable slope) equation.
(Polarisation of emitted light reports the rotation of a fluorescent probe.)
As a reminder, the IC50 is the concentration that inhibits the measured activity by half. Higher therefore signals weaker potency in that assay. Take `COc1cc2ncnc(C3CCN(C(=O)Nc4ccc(I)cc4)CC3)c2cc1OC` [Compound 2, 4-(6,7-Dimethoxy-quinazolin-4-yl)-piperidine-1-carboxylic acid (4-iodo-phenyl)-amide]: the concentration for half-maximal inhibition (IC50) came to 6200 nM. For the molecule `COc1cc2ncnc(C3CCN(C(=O)Nc4ccc(-n5ccnc5)cc4)CC3)c2cc1OC` [Compound 3, 4-(6,7-Dimethoxy-quinazolin-4-yl)-piperidine-1-carboxylic acid (4-imidazol-1-yl-phenyl)-amide], the IC50 is above 42000 nM. For `CC(C)c1ccc(NC(=O)N2CCC(c3ccnc4ccccc34)CC2)cc1` [Compound 5, 4-Quinolin-4-yl-piperidine-1-carboxylic acid (4-isopropyl-phenyl)-amide], half-maximal inhibition (IC50) was put at 700 nM. The figure for `CC(C)Oc1ccc(NC(=O)N2CCC(c3ccnc4ccccc34)CC2)cc1` [Compound 6, 4-Quinolin-4-yl-piperidine-1-carboxylic acid (4-isopropoxy-phenyl)-amide] is 800 nM; for `CC(C)c1ccc(NC(=O)N2CCC(c3ncnc4ccccc34)CC2)cc1` [Compound 7, 4-Quinazolin-4-yl-piperidine-1-carboxylic acid (4-isopropyl-phenyl)-amide] it is 3300 nM; for `CC(C)Oc1ccc(NC(=O)N2CCC(c3ncnc4ccccc34)CC2)cc1` [Compound 8, 4-Quinazolin-4-yl-piperidine-1-carboxylic acid (4-isopropoxy-phenyl)-amide] it is 2400 nM.

In turn, `COc1cc2ncnc(C3CCN(CC(=O)Nc4ccc(C(C)C)cc4)CC3)c2cc1OC` [Compound 9, 2-[4-(6,7-Dimethoxy-quinazolin-4-yl)-piperidin-1-yl]-N-(4-isopropyl-phenyl)-acetamide] registered an IC50 of 500 nM. In turn, `COc1cc2ncnc(C3CCN(CC(=O)Nc4ccc(OC(C)C)cc4)CC3)c2cc1OC` [Compound 10, 2-[4-(6,7-Dimethoxy-quinazolin-4-yl)-piperidin-1-yl]-N-(4-isopropoxy-phenyl)-acetamide] displayed an IC50 of 1000 nM.

Turning to `CC(C)Oc1ccc(NC(=O)N2CCC(c3ncnc4ccc(I)cc34)CC2)cc1` [Compound 11, 4-(6-Iodo-quinazolin-4-yl)-piperidine-1-carboxylic acid (4-isopropoxy-phenyl)-amide], the IC50 was 200 nM. The figure for `CC(C)Oc1ccc(NC(=O)N2CCC(c3ncnc4ccc(C#CCO)cc34)CC2)cc1` [Compound 12, 4-[6-(3-Hydroxy-prop-1-ynyl)-quinazolin-4-yl]-piperidine-1-carboxylic acid (4-isopropoxy-phenyl)-amide] is 500 nM; for `CCN(CC)CC#Cc1ccc2ncnc(C3CCN(C(=O)Nc4ccc(OC(C)C)cc4)CC3)c2c1` [Compound 13, 4-[6-(3-Diethylamino-prop-1-ynyl)-quinazolin-4-yl]-piperidine-1-carboxylic acid (4-isopropoxy-phenyl)-amide] it is 1300 nM; for `CC(C)Oc1ccc(NC(=O)N2CCC(c3ncnc4ccc(C#CCN5CCCCC5)cc34)CC2)cc1` [Compound 14, 4-[6-(3-Piperidin-1-yl-prop-1-ynyl)-quinazolin-4-yl]-piperidine-1-carboxylic acid (4-isopropoxy-phenyl)-amide] it is 300 nM. The value for `CC(C)Oc1ccc(NC(=O)N2CCC(c3ncnc4ccc(C#CCN5CCOCC5)cc34)CC2)cc1` [Compound 15, 4-[6-(3-Morpholin-4-yl-prop-1-ynyl)-quinazolin-4-yl]-piperidine-1-carboxylic acid (4-isopropoxy-phenyl)-amide] was 800 nM; that for `CC(C)c1ccc(NC(=O)CN2CCC(c3ncnc4ccccc34)CC2)cc1` [Compound 16, N-(4-Isopropyl-phenyl)-2-(4-quinazolin-4-yl-piperidin-1-yl)-acetamide] was 2600 nM; that for `COc1cc2ncnc(C3CCN(C(=O)Nc4ccc(N5CCCCC5)cc4)CC3)c2cc1OC` [Compound 19, 4-(6,7-Dimethoxy-quinazolin-4-yl)-piperidine-1-carboxylic acid (4-piperidin-1-yl-phenyl)-amide] was 2700 nM. The value for `COc1cc2ncnc(C3CCN(C(=O)Nc4ccc(C5CCCCC5)cc4)CC3)c2cc1OC` [Compound 21, 4-(6,7-Dimethoxy-quinazolin-4-yl)-piperidine-1-carboxylic acid (4-cyclohexyl-phenyl)-amide] was 600 nM; that for `COc1cc2ncnc(C3CCN(C(=O)Nc4ccc(CO)cc4)CC3)c2cc1OC` [Compound 22, 4-(6,7-Dimethoxy-quinazolin-4-yl)-piperidine-1-carboxylic acid (4-hydroxymethyl-phenyl)-amide] was 17700 nM. In turn, `COc1cc2ncnc(C3CCN(C(=O)Nc4ccc5[nH]ccc5c4)CC3)c2cc1OC` [Compound 23, 4-(6,7-Dimethoxy-quinazolin-4-yl)-piperidine-1-carboxylic acid (1H-indol-5-yl)-amide] showed a half-maximal inhibitory concentration (IC50) of 13300 nM. `COc1cc2ncnc(C3CCN(C(=O)Nc4ccc5ncsc5c4)CC3)c2cc1OC` [Compound 24, 4-(6,7-Dimethoxy-quinazolin-4-yl)-piperidine-1-carboxylic acid benzothiazol-6-ylamide]: the half-inhibitory concentration (IC50) is 35000 nM. The figure for `COc1cc2ncnc(C3CCN(C(=O)Nc4ccc(NC(C)=O)cc4)CC3)c2cc1OC` [Compound 25, 4-(6,7-Dimethoxy-quinazolin-4-yl)-piperidine-1-carboxylic acid (4-acetylamino-phenyl)-amide] is above 42000 nM.

`COc1cc2ncnc(C3CCN(C(=O)Nc4ccc(N(C)C)cc4)CC3)c2cc1OC` [Compound 26, 4-(6,7-Dimethoxy-quinazolin-4-yl)-piperidine-1-carboxylic acid (4-dimethylamino-phenyl)-amide] came in with an IC50 of 9400 nM.

As for `COc1cc2ncnc(C3CCN(C(=O)Nc4ccc5c(c4)CCO5)CC3)c2cc1OC` [Compound 27, 4-(6,7-Dimethoxy-quinazolin-4-yl)-piperidine-1-carboxylic acid (2,3-dihydro-benzofuran-5-yl)-amide], the IC50 came to 9400 nM.

`COc1cc2ncnc(C3CCN(C(=O)Cc4ccc(C(C)C)cc4)CC3)c2cc1OC` [Compound 28, 1-[4-(6,7-Dimethoxy-quinazolin-4-yl)-piperidin-1-yl]-2-(4-isopropyl-phenyl)-ethanone] returned an IC50 of 100 nM. In turn, `CC(C)Oc1ccc(NC(=O)N2CCC(c3ncnc4cc(Cl)ccc34)CC2)cc1` [Compound 29, 4-(7-Chloro-quinazolin-4-yl)-piperidine-1-carboxylic acid (4-isopropoxy-phenyl)-amide] registered an IC50 of 500 nM.

In turn, `CC(C)c1ccc(NC(=O)N2CCC(c3ncnc4cc(Cl)ccc34)CC2)cc1` [Compound 30, 4-(7-Chloro-quinazolin-4-yl)-piperidine-1-carboxylic acid (4-isopropyl-phenyl)-amide] registered an IC50 of 700 nM. The value for `COc1ccc2c(C3CCN(C(=O)Nc4ccc(OC(C)C)cc4)CC3)ncnc2c1` [Compound 31, 4-(7-Methoxy-quinazolin-4-yl)-piperidine-1-carboxylic acid (4-isopropoxy-phenyl)-amide] was 400 nM; that for `COc1ccc2c(C3CCN(C(=O)Nc4ccc(C(C)C)cc4)CC3)ncnc2c1` [Compound 32, 4-(7-Methoxy-quinazolin-4-yl)-piperidine-1-carboxylic acid (4-isopropyl-phenyl)-amide] was 500 nM.
